Results reported in ChEMBL document CHEMBL1201862, “PubChem BioAssay data set” (2004).
The source made the active and inactive calls.

Tests used:
[1] = fungal growth arrest, C. neoformans – Alamar Blue, cherry-picks, dose response (AID 686998); format: functional, organism-based
Vero = assay: viability loss in Vero cells – cell-based, plate reader, cherry-pick samples, cytotoxicity control, dose response (AID 687020); format: functional; details: Chlorocebus sabaeus
[2] = HEK-293T viability loss after treatment – luminescence, T-cell screen hits, cytotoxicity control for TCR NF-kB inhibitor project, dose response (AID 489026); format: functional, cell-based;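 also: cells exposed to compound about 14 hours before the viability readout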
A549 = assay: viability loss in A549 cells – cell-based, plate reader, cherry-pick samples, cytotoxicity control, dose response (AID 687028); format: functional; details: Homo sapiens
[3] = luciferase signal loss, tTA control fusion, HeLa F-luc tTA cells, dry powder, counter-screen for HIV Env fusion inhibitor project, dose response (AID 687021); format: functional, cell-based
[4] = molecular target: Protein disulfide-isomerase (Homo sapiens, UniProt P07237); assay: inhibition of PDI-mediated insulin reduction – biochemical, turbidity, dry powder samples, set 2, confirmation (AID 652146)
Chain of Protein disulfide-isomerase (P07237 whole entry): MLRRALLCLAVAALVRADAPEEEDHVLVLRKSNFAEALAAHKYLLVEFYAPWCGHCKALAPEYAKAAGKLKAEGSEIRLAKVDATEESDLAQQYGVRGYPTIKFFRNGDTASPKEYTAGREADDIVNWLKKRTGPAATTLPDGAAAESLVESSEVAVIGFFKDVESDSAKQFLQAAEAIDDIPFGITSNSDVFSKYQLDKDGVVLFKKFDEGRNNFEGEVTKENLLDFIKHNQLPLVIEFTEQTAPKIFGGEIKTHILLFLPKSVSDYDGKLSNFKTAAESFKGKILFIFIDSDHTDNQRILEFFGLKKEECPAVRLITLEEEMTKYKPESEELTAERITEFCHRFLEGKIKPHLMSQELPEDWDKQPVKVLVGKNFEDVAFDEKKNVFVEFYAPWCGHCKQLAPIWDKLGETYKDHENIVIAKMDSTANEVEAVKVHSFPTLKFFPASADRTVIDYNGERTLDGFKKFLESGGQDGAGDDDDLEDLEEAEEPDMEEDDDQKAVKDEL

[5] = A Cell-Based Confirmatory Screen for Compounds that Inhibit VEEV, TC-83 (8).; format: functional
[6] = HeLa cell viability loss – 24 h, dry powder, set 2, cytotoxicity control, dose response (AID 651774); format: functional, cell-based
Fatty acid synthase = Fatty acid synthase (Homo sapiens, UniProt P49327); assay: inhibition of human FAS-TE enzyme activity – biochemical, endpoint fluorescence intensity, powder samples, SAR follow-up (AID 652164); format: functional
Chain of Fatty acid synthase (P49327 whole entry): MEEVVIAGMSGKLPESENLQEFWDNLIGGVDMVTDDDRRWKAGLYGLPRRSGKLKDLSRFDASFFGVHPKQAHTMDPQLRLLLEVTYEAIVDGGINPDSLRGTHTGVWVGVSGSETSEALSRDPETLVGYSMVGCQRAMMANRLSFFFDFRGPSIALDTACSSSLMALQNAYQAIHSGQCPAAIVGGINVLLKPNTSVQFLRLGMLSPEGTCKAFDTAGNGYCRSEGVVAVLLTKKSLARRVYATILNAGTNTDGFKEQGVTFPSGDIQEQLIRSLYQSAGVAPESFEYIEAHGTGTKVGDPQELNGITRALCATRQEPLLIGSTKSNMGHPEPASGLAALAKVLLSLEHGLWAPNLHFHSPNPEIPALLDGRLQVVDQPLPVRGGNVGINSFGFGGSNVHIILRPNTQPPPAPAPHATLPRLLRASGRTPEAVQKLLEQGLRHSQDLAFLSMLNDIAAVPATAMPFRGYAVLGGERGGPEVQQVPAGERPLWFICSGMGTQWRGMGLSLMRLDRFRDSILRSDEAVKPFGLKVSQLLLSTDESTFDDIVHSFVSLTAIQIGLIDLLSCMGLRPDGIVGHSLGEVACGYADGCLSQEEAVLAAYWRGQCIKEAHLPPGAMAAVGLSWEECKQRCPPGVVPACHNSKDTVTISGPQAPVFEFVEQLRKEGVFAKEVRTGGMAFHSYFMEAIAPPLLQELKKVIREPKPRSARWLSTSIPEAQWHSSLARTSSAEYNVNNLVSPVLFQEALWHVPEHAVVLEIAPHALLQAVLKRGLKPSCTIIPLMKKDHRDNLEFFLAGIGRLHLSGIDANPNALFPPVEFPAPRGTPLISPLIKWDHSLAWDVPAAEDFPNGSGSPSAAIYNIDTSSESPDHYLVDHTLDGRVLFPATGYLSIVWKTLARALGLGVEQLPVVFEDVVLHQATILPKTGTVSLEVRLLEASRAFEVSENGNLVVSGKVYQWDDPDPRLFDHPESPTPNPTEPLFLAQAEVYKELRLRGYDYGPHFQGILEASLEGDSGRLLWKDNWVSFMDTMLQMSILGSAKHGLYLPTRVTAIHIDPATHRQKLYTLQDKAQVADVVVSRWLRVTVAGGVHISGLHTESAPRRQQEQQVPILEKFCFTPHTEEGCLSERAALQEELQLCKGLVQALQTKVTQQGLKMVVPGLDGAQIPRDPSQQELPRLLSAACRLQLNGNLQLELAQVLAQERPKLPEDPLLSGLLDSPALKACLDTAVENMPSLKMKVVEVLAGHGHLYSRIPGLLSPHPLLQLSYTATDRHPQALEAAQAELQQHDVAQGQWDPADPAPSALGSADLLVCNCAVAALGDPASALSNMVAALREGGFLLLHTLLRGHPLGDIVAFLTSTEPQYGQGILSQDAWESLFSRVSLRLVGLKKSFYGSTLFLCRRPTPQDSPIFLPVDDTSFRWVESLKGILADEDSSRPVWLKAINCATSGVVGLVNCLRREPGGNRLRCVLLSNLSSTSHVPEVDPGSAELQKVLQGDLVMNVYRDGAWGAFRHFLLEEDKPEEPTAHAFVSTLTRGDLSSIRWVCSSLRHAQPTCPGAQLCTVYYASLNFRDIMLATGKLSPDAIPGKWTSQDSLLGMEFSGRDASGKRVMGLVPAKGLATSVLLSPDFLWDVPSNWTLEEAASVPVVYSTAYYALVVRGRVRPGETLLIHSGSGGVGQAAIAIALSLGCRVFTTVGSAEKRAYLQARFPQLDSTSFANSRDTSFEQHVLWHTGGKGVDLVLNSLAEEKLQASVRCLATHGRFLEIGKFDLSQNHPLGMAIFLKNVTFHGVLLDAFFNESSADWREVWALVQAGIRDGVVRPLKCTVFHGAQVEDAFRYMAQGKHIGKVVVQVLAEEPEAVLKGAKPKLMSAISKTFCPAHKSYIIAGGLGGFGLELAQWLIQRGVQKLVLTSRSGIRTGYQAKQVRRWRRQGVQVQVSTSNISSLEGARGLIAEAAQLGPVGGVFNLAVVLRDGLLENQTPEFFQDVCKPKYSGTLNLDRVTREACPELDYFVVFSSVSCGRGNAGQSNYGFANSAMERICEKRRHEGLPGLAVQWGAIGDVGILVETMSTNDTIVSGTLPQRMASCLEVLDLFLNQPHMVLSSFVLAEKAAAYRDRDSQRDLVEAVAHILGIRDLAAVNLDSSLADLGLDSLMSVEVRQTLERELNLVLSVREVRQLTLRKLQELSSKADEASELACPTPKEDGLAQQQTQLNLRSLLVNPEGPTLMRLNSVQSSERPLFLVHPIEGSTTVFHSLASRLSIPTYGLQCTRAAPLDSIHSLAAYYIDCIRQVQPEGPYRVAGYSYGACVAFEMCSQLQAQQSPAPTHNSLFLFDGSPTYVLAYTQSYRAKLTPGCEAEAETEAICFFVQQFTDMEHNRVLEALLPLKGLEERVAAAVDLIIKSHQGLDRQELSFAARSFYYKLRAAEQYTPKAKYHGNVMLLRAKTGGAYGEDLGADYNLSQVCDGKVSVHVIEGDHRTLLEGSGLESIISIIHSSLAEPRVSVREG

Beta-lactamase [7] = molecular target: Beta-lactamase (Salmonella choleraesuis (strain SC-B67), UniProt Q5J463); assay: Epi-absorbance-based counterscreen for selective VIM-2 inhibitors: dose response biochemical high throughput screening assay to identify inhibitors of TEM-1 serine-beta-lactamase.
Chain of Beta-lactamase (Salmonella choleraesuis (strain SC-B67), UniProt Q5J463) (Q5J463 whole entry): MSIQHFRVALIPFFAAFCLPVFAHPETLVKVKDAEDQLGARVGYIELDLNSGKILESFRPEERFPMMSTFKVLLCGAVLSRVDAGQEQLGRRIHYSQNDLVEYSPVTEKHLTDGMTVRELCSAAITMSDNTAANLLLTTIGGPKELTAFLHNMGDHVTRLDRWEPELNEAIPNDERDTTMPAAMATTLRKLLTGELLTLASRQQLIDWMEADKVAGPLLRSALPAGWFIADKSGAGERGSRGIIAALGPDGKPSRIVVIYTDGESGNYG

Beta-lactamase [8] = molecular target: T1, Beta-lactamase (Pseudomonas aeruginosa, UniProt Q79MP6); assay: inhibition of IMP-1 beta-lactamase activity – biochemical, epi-absorbance, selectivity assay for VIM-2 inhibitor project, dose response (AID 1920)
T1 sequence (Q79MP6 whole entry): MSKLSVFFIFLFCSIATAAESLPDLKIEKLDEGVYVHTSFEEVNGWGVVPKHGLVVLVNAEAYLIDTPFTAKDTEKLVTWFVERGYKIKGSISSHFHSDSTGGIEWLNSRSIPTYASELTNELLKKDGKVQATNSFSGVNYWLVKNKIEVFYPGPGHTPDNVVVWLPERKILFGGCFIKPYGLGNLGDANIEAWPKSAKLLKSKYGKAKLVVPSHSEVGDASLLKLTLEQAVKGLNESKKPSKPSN

Beta-lactamase [9] = molecular target: T1, Beta-lactamase; assay: […] counterscreen for selective VIM-2 inhibitors: dose response biochemical high throughput screening assay to identify inhibitors of IMP-1 metallo-beta-lactamase.
Beta Lactamase [10] = molecular target: T2, Beta Lactamase (Pseudomonas aeruginosa, UniProt Q932Y6); assay: VIM-2 CCF2 hydrolysis inhibition, assay artifact filter – biochemical, FRET readout, CCF2 substrate, artefact control for selective VIM-2 inhibitor project, dose response (AID 1926)
T2 sequence (Q932Y6 whole entry): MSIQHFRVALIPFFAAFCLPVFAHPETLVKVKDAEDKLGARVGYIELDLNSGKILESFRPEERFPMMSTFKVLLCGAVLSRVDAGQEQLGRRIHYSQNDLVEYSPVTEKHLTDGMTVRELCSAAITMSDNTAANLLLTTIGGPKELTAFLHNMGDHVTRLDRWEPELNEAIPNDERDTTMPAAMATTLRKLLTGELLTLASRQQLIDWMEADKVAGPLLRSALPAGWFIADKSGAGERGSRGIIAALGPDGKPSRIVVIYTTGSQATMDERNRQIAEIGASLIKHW

Beta Lactamase [11] = molecular target: T2, Beta Lactamase; assay: concentration-dependent VIM-2 enzyme inhibition – biochemical, epi-absorbance readout, selective inhibitors, dose response (AID 1919)
[12] = molecular target: FAD-linked sulfhydryl oxidase ALR (Homo sapiens, UniProt P55789); assay: ALR-catalysed DTT oxidation blockers – biochemical, H2O2 detection, luminescence, cherry-pick, dose response (AID 493248)
Chain of FAD-linked sulfhydryl oxidase ALR (P55789 whole entry): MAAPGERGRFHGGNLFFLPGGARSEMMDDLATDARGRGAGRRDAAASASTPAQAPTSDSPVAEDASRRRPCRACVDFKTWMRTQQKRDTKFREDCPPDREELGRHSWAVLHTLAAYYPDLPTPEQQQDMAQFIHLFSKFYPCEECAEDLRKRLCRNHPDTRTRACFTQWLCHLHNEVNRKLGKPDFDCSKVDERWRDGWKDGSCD

HEK293 = assay: EBV LMP1 TES2 canonical NF-kB signalling blockers – cell-based, HEK293, luciferase, cherry-pick, dose response (AID 588343); format: functional; details: Homo sapiens
[13] = reduction of Shn3 3'UTR-driven luciferase in osteoblasts – cell-based, Clone20 osteoblasts, firefly luciferase, cherry-picked, dose response (AID 624132); format: functional;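 also: firefly luciferase luminescence from reporter carrying the Shn3 3'UTR in osteoblasts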
[14] = non-specific 3'UTR reporter inhibition in Clone20-Shn3RL – cell-based, Renilla luciferase, cherry-picked, counter-screen for Shn3 inhibitor project, dose response (AID 624133); format: functional
[15] = COV434 cell viability loss – plate reader, dry powder, SA7, cytotoxicity control for PAX8 inhibitor project, dose response (AID 743145); format: functional, cell-based
[16] = loss of viability in HepG2 cells – cell-based, CellTiter-Glo, cherry-picked, cytotoxicity control for Shn3 inhibitor project, dose response (AID 624134); format: functional
[17] = PAX8-dependent cell viability loss – plate reader, dry powder, dose response (AID 743049); format: functional, cell-based
[18] = toxicity toward immortalized ovarian surface epithelium – cell-based, plate reader, dry powder samples, cytotoxicity control for PAX8 inhibitor project, dose response (AID 743045); format: functional
[19] = OV-90 cell viability loss – plate reader, dry powder, SA8, PAX8 inhibitor project, dose response (AID 743149); format: functional, cell-based
Paired box protein Pax-8 = Paired box protein Pax-8 (Homo sapiens, UniProt Q06710); assay: PAX8 transcriptional activity inhibition in RMG-I – RMG-I cells, luciferase, cherry-pick, dose response (AID 687027); format: functional, cell-based;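 also: luciferase reporter driven by Pax8 target thyroperoxidase promoter measured by SteadyGlo luminescence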
Chain of Paired box protein Pax-8 (Q06710 whole entry): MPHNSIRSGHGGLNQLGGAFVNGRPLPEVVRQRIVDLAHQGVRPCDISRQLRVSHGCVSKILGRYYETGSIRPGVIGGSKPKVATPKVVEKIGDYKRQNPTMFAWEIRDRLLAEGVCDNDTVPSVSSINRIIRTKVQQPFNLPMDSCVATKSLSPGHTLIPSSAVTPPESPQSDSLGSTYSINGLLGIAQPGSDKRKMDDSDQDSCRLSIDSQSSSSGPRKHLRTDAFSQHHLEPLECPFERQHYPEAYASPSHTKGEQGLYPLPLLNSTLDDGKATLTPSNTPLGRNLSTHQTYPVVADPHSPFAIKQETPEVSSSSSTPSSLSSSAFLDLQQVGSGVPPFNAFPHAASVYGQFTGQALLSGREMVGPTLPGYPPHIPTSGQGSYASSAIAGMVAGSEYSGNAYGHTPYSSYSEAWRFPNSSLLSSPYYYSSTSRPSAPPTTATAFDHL

[20] = PAX5 cellular inhibition readout – cell-based, plate reader, dry powder samples, selectivity assay for PAX8 inhibitor project, dose response (AID 743047); format: functional;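 also: HEK293 cells carrying a Pax5 driven CD19 promoter luciferase reporter; potency of inhibitors that lower reporter luminescence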
[21] = OVCAR-3 cell viability loss – plate reader, dry powder samples, PAX8 inhibitor project, dose response (AID 743044); format: functional, cell-based
[22] = OVCAR4 cell viability loss – plate reader, dry powder, SA11, cytotoxicity control for PAX8 inhibitor project, dose response (AID 743150); format: functional, cell-based; details: OVCAR-4
[23] = A2780 cell killing – plate reader, dry powder samples, cytotoxicity control, dose response (AID 743046); format: functional, cell-based
[24] = inhibitors acting on PAX2 in cells – cell-based, plate reader, dry powder samples, selectivity assay for PAX8 inhibitor project, dose response (AID 743048); format: functional;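 also: HEK293 cells carrying a WT1 promoter luciferase reporter driven by expressed Pax2; potency is for inhibition of Pax2 driven reporter signal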
[25] = molecular target: Heat shock protein HSP 90-alpha (Homo sapiens, UniProt P07900); format: functional, organism-based
[26] = IGROV1 cell killing – plate reader, dry powder samples, PAX8 inhibitor project, dose response (AID 743043); format: functional, cell-based; details: IGROV-1
[27] = COV362 cell viability loss – plate reader, dry powder, SA12, cytotoxicity control for PAX8 inhibitor project, dose response (AID 743144); format: functional, cell-based

**Q.** Which AC50 [1] does the source give for CCC(=O)N1CCCC1(C)C(=O)Nc1ccc(C)c(C)c1 (configuration not stated) here?
**A.** The AC50 was 93.7 µM (active).

**Q.** Which AC50 (Vero) does the source give for COc1ccc(OC)c(-c2nnc3n2N=C(c2ccc(OC)c(OC)c2)CS3)c1 here?
**A.** Its AC50 is 23.2 µM (active).

**Q.** What about the IC50 [2] of the same compound?
**A.** The IC50 was > 80 µM (inactive).

**Q.** And the AC50 (A549)?
**A.** Its AC50 is 4.83 µM (active).

**Q.** For CC1(C)CC(NC(=O)C(=O)Nc2ccc(Cl)cc2)CC(C)(C)N1, which AC50 [3] is on record?
**A.** The AC50 was > 70 µM (inactive).

**Q.** With C=CCOc1ccc(CN2CCC(CCOc3ccccc3)(C(=O)OCC)CC2)cc1Cl as the compound, how does the AC50 [4] read?
**A.** The AC50 was > 30 µM (inactive).

**Q.** For O=c1c2cc([N+](=O)[O-])ccc2nc(C2CCNCC2)n1-c1ccccc1, which IC50 [5] is on record?
**A.** The IC50 was 3.88 µM (active).

**Q.** Which AC50 [6] does the source give for CNC(=O)Cc1ccc(-c2ccccc2)cc1 here?
**A.** The AC50 was > 70 µM (inactive).

**Q.** Which IC50 (Fatty acid synthase) does the source give for CN(C)S(=O)(=O)c1ccc(-c2csc(NC(=O)C3CCC3)n2)cc1 here?
**A.** The IC50 was 1.36 µM (active).

**Q.** For O=[N+]([O-])c1ccccc1/C=C/C=N/n1c(S)nnc1-c1ccccc1F, which IC50 (Beta-lactamase [7]) is on record?
**A.** Its IC50 is > 59.6 µM (inactive).

**Q.** What about the IC50 (Beta-lactamase [8]) of the same compound?
**A.** Its IC50 is > 59.6 µM (inactive).

**Q.** What about the IC50 (Beta-lactamase [9]) of the same compound?
**A.** Its IC50 is > 59.6 µM (inactive).

**Q.** And the IC50 (Beta Lactamase [10])?
**A.** Its IC50 is > 6.63 µM (active).

**Q.** What about the IC50 (Beta Lactamase [11]) of the same compound?
**A.** The IC50 was > 59.6 µM (inactive).

**Q.** And the AC50 [12]?
**A.** The AC50 was 1.89 µM (active).

**Q.** For CC(=O)NC(c1ccc(Cl)cc1)c1ccc2cccnc2c1O (configuration not stated), which AC50 (HEK293) is on record?
**A.** The AC50 was 4.08 µM (active).

**Q.** And the AC50 [13]?
**A.** The AC50 was 0.299 µM (active).

**Q.** And the AC50 [14]?
**A.** The AC50 was 0.977 µM (active).

**Q.** What about the AC50 [15] of the same compound?
**A.** Its AC50 is 5.09 µM (active).

**Q.** And the AC50 [16]?
**A.** The AC50 was 1.47 µM (active).

**Q.** And the AC50 [17]?
**A.** Its AC50 is 8.52 µM (active).

**Q.** What about the AC50 [18] of the same compound?
**A.** Its AC50 is 4.43 µM (active).

**Q.** What about the AC50 [19] of the same compound?
**A.** The AC50 was 5.27 µM (active).

**Q.** And the AC50 (Paired box protein Pax-8)?
**A.** The AC50 was 2.09 µM (active).

**Q.** What about the AC50 [20] of the same compound?
**A.** The AC50 was 2.31 µM (active).

**Q.** What about the AC50 [21] of the same compound?
**A.** Its AC50 is 4.57 µM (active).

**Q.** What about the AC50 [22] of the same compound?
**A.** Its AC50 is 18.1 µM (active).

**Q.** And the AC50 [23]?
**A.** Its AC50 is 20.8 µM (active).

**Q.** And the AC50 [24]?
**A.** The AC50 was 1.57 µM (active).

**Q.** And the AC50 [25]?
**A.** Its AC50 is 2.68 µM (active).

**Q.** What about the AC50 [26] of the same compound?
**A.** The AC50 was 7.12 µM (active).

**Q.** And the AC50 [27]?
**A.** Its AC50 is 7.17 µM (active).
